# Data published in ChEMBL document CHEMBL3886653, “Cytomegalovirus inhibitor compounds” (2016).
# Molecular target: T1, DNA polymerase catalytic subunit (Human cytomegalovirus (strain AD169) (HHV-5) (Human herpesvirus 5), UniProt P08546)
# T1 sequence (P08546 whole entry): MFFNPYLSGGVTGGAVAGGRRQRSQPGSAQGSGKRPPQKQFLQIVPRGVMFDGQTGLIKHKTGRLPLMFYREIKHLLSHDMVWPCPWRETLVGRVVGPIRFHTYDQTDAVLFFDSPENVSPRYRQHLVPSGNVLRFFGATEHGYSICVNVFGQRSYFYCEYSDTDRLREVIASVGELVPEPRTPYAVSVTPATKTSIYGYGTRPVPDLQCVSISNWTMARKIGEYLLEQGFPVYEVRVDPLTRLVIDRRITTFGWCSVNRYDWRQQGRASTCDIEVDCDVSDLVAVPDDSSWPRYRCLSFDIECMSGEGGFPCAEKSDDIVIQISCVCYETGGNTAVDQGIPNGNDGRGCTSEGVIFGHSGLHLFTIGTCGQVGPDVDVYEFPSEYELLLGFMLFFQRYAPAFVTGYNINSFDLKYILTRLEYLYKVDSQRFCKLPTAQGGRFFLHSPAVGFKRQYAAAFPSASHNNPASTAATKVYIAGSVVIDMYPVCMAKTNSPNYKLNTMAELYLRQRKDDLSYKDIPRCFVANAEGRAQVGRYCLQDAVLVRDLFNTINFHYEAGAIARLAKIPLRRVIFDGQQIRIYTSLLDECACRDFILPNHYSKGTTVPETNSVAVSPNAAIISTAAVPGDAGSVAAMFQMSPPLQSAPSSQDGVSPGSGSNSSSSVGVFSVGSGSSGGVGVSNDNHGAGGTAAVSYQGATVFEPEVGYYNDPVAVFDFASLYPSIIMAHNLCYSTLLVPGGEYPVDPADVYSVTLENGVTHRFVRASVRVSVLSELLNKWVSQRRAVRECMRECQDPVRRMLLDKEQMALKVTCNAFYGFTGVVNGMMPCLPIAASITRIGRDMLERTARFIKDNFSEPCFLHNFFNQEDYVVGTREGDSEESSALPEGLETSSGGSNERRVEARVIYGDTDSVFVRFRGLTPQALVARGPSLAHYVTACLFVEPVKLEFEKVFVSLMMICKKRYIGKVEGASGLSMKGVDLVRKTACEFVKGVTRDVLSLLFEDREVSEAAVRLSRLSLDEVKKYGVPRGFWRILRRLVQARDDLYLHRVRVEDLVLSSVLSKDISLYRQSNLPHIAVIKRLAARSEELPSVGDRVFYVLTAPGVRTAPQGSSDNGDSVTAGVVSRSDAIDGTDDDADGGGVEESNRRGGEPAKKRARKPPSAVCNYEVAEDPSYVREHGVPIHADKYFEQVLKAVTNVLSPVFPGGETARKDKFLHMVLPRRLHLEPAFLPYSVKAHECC
# Experiment: HCMV Polymerase Scintillation Proximity Assay: The assay conditions are the following: 10 mM HEPES pH 7.5, 25 mM KCl, 7.5 mM NaCl, 5 mM MgCl2, 0.2 mg BSA/mL, 1 mM TCEP, 1.5% glycerol, 2 μM dTTP, 90 nM 3H-dTTP (minor variations in concentration are possible due to specific activity of stock), 26 nM Poly(dA)/190 nM BioTEG-dT19; 5% DMSO. The assay volume is 30 μL. Each reagent is added at a 3× conc.: 10 μL a+10 μL b+10 μL c; a: compound diluted in 10 mM Hepes pH 7.5, 25 mM KCl, 5 mM MgCl2, 1 mM TCEP with 15% DMSO; b: enzyme (GST-UL54) in 10 mM Hepes pH 7.5, 25 mM KCl, 5 mM MgCl2, 22.5 mM NaCl, 4.5% Glycerol, 0.6 mg BSA/mL, 1 mM TCEP w/o DMSO (1 nM GST-UL54 is present in the assay); c: substrate in 10 mM Hepes pH 7.5, 25 mM KCl, 5 mM MgCl2, 1 mM TCEP, 6 μM dTTP, 270 nM 3H-dTTP, 78 nM Poly(dA)/570 nM BioTEG-dT19 w/o DMSO. To perform the assay, 10 μL enzyme solution is added to columns 2-12 and 14-24. The enzyme is substituted by the blank solution (b solution without enzyme) for columns 1 and 13 (blanks). The plate is centrifuged at 200×g for 30 sec. 10 μL of substrate solution is added to each well. The plate is centrifuged at 200×g for 30 sec. The plates are incubated at 37 °C. for 40 min. To stop the reaction, 25 μL of SPA beads (5 mg/mL in 0.5 M EDTA) are added and mixed by pipetting up and down. The plates are incubated at RT for at least 15 min. 35 μL of 5 M CsCl is added to the bottom of each well. TopSeal is applied to the plate and the plate is incubated at RT for at least 90 min prior to reading. The signal is read on TopCount plate reader (Perkin-Elmer) or equivalent.
row,Compound,IC50
1,O=C(NCc1ccc(Cl)cc1)c1cc2cccnc2n(CC(=O)N2CCCOCC2)c1=O,16 µM
2,CC1(C)CN(C(=O)Cn2c(=O)c(C(=O)NCc3ccc(Cl)c(C(F)(F)F)c3)cc3cccnc32)C1,38 µM
3,CC1(C)CN(C(=O)Cn2c(=O)c(C(=O)NCc3ccc(Cl)c(Cl)c3)cc3cccnc32)C1,14 µM

# Molecular target: T1, DNA polymerase catalytic subunit
# Experiment: HCMV Polymerase LANCE TR-FRET Assay: The assay conditions are the following: 10 mM HEPES pH 7.5, 25 mM KCl, 7.5 mM NaCl, 5 mM MgCl2, 0.2 mg BSA/mL, 1 mM TCEP, 1.5% glycerol, 5% DMSO, 235 nM dATP, 350 nM dCTP, 350 nM dGTP, 235 nM dTTP, 12 nM biotin-16-dUTP, 23.5 nM Dig-primer/template, 2 nM GST-UL54. The assay volume is 10 μL. Each reagent is added as follow: 4 μL a+3 μL b+3 μL c; a: compound diluted in compound dilution buffer to obtain 12.5% DMSO; b: enzyme (GST-UL54) in 10 mM Hepes pH 7.5, 25 mM KCl, 5 mM MgCl2, 25 mM NaCl, 5% Glycerol, 0.67 mg BSA/mL, 1 mM TCEP w/o DMSO (2 nM GST-UL54 is present in the assay); c: substrate in 10 mM HEPES pH 7.5, 25 mM KCl, 5 mM MgCl2, 1 mM TCEP, 783 nM dATP, 1166 nM dCTP, 1166 nM dGTP, 783 nM dTTP, 40 nM biotin-16-dUTP, 78 nM Dig-primer (5'-/Dig/AGC TCG TTT AGT GAA CC-3')/template (5'-GAGGTCAAAACAGCGTGGATGGCGTCTCCAGGCGATCTGACGGTTCACTAAACGAGCT-3') w/o DMSO. The primer and template are annealed in 10 mM Tris-HCl pH 7.5, 50 mM NaCl at a respective concentration of 50 μM. They are incubated at 95 °C. for 5 min in a dry batch block. The block is removed from the dry bath and allowed to cool to RT. Aliquots are made and stored at −20 °C. To perform the assay, 3 μL of the enzyme solution is added to columns 2-12 and 14-24. The enzyme is substituted by the blank solution (b solution without enzyme) for columns 1 and 13 (blanks). The plate is centrifuged at 200×g for 30 sec. 3 μL of substrate solution is added to each well. The plate is centrifuged at 200×g for 30 sec. Plates are incubated at 37 °C. for 30 min. 5 μL of conjugate solution is added (25 mM Hepes pH 7.5, 0.1 M NaCl, 0.25% Tween-20, 1 mg/mL BSA, 12 mM EDTA, 24 nM Sreptavidin-APC, 342 ng/mL Anti-Dig-Europium). The plates are incubated at RT for at least 120 min. The signal is read on the Envision plate reader (Perkin-Elmer) or equivalent.
row,Compound,IC50
1,CS(=O)(=O)C1CN(C(=O)Cn2c(=O)c(C(=O)NCc3ccc(Cl)cc3)cc3cccnc32)C1,17 µM
2,CC1(C)CN(C(=O)Cn2c(=O)c(C(=O)NCc3ccc(Cl)cc3)cc3c(Oc4cccnc4)ccnc32)C1,0.28 µM
3,CC1(C)CN(C(=O)Cn2c(=O)c(C(=O)NCc3ccc(Cl)cc3)cc3c(CCN4CCC4)ccnc32)C1,0.28 µM
4,CC(C)c1ccnc2c1cc(C(=O)NCc1ccc(Cl)cc1)c(=O)n2CC(=O)N1CC(C)(C)C1,0.2 µM
5,CNc1ccc2cc(C(=O)NCc3ccc(Cl)cc3)c(=O)n(CC(=O)N3CC(C)(O)C3)c2n1,0.12 µM
6,CC1(C)CN(C(=O)Cn2c(=O)c(C(=O)NCc3ccc(Cl)cc3)cc3cc(-c4nn[nH]n4)cnc32)C1,0.03 µM
7,CCn1cc(-c2c(O)cnc3c2cc(C(=O)NCc2ccc(Cl)cc2)c(=O)n3CC(=O)N2CC(C)(C)C2)cn1,0.16 µM
8,COc1cc(CNC(=O)c2cc3cc(-c4cn(C)cn4)cnc3n(CC(=O)N3CC(C)(F)C3)c2=O)ccc1Cl,0.4 µM
9,CN(C(=O)Cn1c(=O)c(C(=O)NCc2ccc(Cl)cc2)cc2cccnc21)C1CC(O)C1 (centres undefined),0.22 µM
10,Cn1nccc1Cc1cnc2c(c1)cc(C(=O)NCc1ccc(Cl)cc1)c(=O)n2CC(=O)N1CC(C)(C)C1,0.065 µM
11,Cc1noc(C2CCN(C(=O)Cn3c(=O)c(C(=O)NCc4ccc(Cl)cc4)cc4cccnc43)C2)n1 (centres undefined),10 µM
12,CN(CC(C)(C)CO)C(=O)Cn1c(=O)c(C(=O)NCc2ccc(Cl)cc2)cc2ccc(NC3CC3)nc21,0.97 µM
13,Cc1cc(Nc2cnc3c(c2)cc(C(=O)NCc2ccc(Cl)cc2)c(=O)n3CC(=O)N2CC(C)(C)C2)n(C)n1,0.18 µM
14,Cn1cnc(-c2cc3cc(C(=O)NCc4ccc(Cl)cc4)c(=O)n(CC(=O)N4CC(C)(F)C4)c3nc2N)c1,0.077 µM
15,CC1(C)CN(C(=O)Cn2c(=O)c(C(=O)NCc3ccc(Cl)cc3)cc3cc(C(=O)NCc4cnccn4)cnc32)C1,0.065 µM
16,CC1CN(C(=O)Cn2c(=O)c(C(=O)NCc3ccc(Cl)cc3)cc3c(-c4cnc(N)nc4)c(-c4cnn(C)c4)cnc32)C1,0.12 µM
17,COc1c(-c2cnn(C)c2)cnc2c1cc(C(=O)NCc1ccc(Cl)cc1)c(=O)n2CC(=O)N1CCC(CO)C1 (centres undefined),0.14 µM
18,CC1(C)CN(C(=O)Cn2c(=O)c(C(=O)NCc3ccc(Cl)cc3)cc3c(-c4cnc(N)nc4)ccnc32)C1,0.071 µM

row,Compound,IC50
1,CC1(C)CN(C(=O)Cn2c(=O)c(C(=O)NCc3ccc(Cl)cc3)cc3cc(CN4CCNC(C(F)(F)F)C4)cnc32)C1 (centres undefined),0.074 µM
2,CC1(F)CN(C(=O)Cn2c(=O)c(C(=O)NCc3ccc(C#N)cc3)cc3cc(-c4c[nH]cn4)cnc32)C1,0.32 µM
3,Cn1cnc(-c2cnc3c(c2)cc(C(=O)NCc2ccc(Cl)cc2)c(=O)n3CC(=O)N2CC(C)(F)C2)c1,0.12 µM
4,CN(CC(=O)O)c1ccnc2c1cc(C(=O)NCc1ccc(Cl)cc1)c(=O)n2CC(=O)N1CC(C)(C)C1,0.05 µM
5,O=C(NCc1ccc(Cl)cc1)c1cc2cccnc2n(CC(=O)N2CC3(CC3)C2)c1=O,0.28 µM
6,CC(=O)NC1CCN(c2cnc3c(c2)cc(C(=O)NCc2ccc(Cl)cc2)c(=O)n3CC(=O)N2CC(C)(C)C2)C1 (centres undefined),0.19 µM
7,CC1CN(C(=O)Cn2c(=O)c(C(=O)NCc3ccc(Cl)cc3)cc3cc(OCC4(C#N)CC4)cnc32)C1,0.17 µM
8,Cc1nc(-c2cnc3c(c2)cc(C(=O)NCc2ccc(Cl)cc2)c(=O)n3CC(=O)N2CC(C)(C)C2)cn1C,0.13 µM
9,COc1cc(N)nc2c1cc(C(=O)NCc1ccc(Cl)cc1)c(=O)n2CC(=O)N(C)CC1(CO)COC1,0.022 µM
10,COc1c(-c2sc(C)nc2C)cnc2c1cc(C(=O)NCc1ccc(Cl)cc1)c(=O)n2CC(=O)N1CC(C)(C)C1,1.2 µM
11,COCCNc1ccnc2c1cc(C(=O)NCc1ccc(Cl)cc1)c(=O)n2CC(=O)N1CC(C)(C)C1,0.2 µM
12,Cn1cc(-c2cc3cc(C(=O)NCc4ccc(Cl)cc4)c(=O)n(CC(=O)N4CC(C)(O)C4)c3nc2N)cn1,0.11 µM
13,CN(CC(C)(C)CO)C(=O)Cn1c(=O)c(C(=O)NCc2ccc(Cl)cc2)cc2ccc(-c3cn[nH]c3)nc21,1 µM
14,CC1(C)CN(C(=O)Cn2c(=O)c(C(=O)NCc3ccc(Cl)cc3)cc3c(OC[C@@H]4CCC(=O)N4)ccnc32)C1,0.062 µM
15,Cn1cc(-c2cnc3c(cc(C(=O)NCc4ccc(Cl)cc4)c(=O)n3CC(=O)N3CC(C)(C)C3)c2N2CC(O)C2)cn1,0.18 µM
16,NC(=O)[C@@H]1C[C@H](F)CN1C(=O)CCn1c(=O)c(C(=O)NCc2ccc(Cl)cc2)cc2cccnc21,0.21 µM
17,Cn1cc(-c2cnc3c(c2)cc(C(=O)NCc2ccc(Cl)cc2)c(=O)n3CC(=O)N2CC(F)(CF)C2)cn1,0.059 µM
18,NCC1CCN(C(=O)Cn2c(=O)c(C(=O)NCc3ccc(Cl)cc3)cc3cccnc32)C1 (centres undefined),5.6 µM
